Results on 26 compounds are retold here after US10457654B2 (GENENTECH, INC., priority 2017, dated 2019).

Assay [1] concerns the target T1, hNav1.7 (Homo sapiens (Human), UniProt Q15858). The assay is described as follows: Tritiated compound binding to membranes from cells expressing hNav1.7 and the β1 subunit, modified protocol (LBA, Ex. 243B). The following applies: 300 pM [3H]compound, room temperature, read-out: Nav1.7 LBA (Ex. 243B) IC50.
Target sequence in this assay (Q15858 whole entry, looked up): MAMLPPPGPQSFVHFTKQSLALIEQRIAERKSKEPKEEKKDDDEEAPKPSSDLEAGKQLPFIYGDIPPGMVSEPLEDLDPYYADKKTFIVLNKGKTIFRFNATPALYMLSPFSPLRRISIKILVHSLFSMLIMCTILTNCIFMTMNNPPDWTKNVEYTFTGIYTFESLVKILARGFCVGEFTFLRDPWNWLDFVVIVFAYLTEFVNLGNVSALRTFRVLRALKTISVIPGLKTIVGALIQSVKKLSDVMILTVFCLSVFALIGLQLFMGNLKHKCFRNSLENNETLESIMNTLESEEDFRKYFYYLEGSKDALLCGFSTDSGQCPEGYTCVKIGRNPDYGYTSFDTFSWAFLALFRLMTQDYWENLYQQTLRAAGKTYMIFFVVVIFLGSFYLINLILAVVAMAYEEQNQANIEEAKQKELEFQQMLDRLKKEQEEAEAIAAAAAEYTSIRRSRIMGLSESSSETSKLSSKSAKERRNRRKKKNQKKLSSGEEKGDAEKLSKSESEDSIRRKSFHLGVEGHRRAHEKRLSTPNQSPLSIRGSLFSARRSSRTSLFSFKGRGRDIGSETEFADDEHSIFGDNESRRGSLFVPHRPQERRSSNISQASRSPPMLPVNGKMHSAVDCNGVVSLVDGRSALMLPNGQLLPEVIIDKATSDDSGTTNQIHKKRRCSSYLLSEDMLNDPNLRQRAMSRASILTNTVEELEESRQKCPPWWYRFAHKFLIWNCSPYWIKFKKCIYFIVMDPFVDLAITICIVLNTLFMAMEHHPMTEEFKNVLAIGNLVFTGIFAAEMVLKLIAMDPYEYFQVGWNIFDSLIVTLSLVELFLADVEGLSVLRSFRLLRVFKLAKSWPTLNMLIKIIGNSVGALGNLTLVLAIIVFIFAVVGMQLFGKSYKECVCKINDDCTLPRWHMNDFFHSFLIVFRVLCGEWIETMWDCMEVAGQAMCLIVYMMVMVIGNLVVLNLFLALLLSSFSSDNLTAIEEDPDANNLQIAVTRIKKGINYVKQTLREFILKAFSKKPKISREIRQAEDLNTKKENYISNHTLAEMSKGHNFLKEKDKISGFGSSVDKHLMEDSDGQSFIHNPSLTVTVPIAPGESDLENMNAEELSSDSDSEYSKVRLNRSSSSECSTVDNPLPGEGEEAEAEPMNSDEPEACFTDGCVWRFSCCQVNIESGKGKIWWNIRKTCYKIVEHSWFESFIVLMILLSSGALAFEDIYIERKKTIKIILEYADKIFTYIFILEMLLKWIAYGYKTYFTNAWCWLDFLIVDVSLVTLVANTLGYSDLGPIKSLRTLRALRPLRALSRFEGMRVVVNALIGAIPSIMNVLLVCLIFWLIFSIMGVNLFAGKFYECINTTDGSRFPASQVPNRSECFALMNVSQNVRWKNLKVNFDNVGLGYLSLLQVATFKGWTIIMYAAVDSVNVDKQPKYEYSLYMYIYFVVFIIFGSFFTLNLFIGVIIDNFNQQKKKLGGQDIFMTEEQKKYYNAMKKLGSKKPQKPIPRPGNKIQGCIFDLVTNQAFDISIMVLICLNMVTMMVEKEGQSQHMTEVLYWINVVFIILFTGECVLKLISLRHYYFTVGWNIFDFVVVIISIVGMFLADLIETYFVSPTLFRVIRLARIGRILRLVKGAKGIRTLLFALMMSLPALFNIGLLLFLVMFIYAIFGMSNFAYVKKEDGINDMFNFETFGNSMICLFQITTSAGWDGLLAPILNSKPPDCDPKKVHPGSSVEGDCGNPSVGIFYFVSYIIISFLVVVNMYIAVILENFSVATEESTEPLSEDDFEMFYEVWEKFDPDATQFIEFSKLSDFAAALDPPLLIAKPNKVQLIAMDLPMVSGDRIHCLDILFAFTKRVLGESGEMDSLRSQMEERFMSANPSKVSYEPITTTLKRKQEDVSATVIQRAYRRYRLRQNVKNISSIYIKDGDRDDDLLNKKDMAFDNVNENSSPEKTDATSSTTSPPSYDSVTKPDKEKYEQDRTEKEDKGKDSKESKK
Target sequence in this assay (Q07699 whole entry partner, looked up): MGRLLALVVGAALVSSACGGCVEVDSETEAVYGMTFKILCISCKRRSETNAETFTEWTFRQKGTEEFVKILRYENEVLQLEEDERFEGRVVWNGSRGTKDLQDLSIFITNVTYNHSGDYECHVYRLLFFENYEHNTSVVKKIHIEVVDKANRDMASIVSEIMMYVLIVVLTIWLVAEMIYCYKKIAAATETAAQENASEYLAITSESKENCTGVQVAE
The target in assay [2] is T1, hNav1.7. The assay is described as follows: Patch voltage clamp electrophysiology assay (EP), Syncropatch 384PE, CHO cells expressing Nav1.7. In kind it is cell-based. The following applies: holding potential -50 mV; […] compound incubation; read-out: EP_SP hNav1.7 (Ex. 243B) IC50. The gist of the method: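 Automated whole-cell patch clamp on CHO cells stably expressing human Nav1.7, CsCl/EGTA internal and NMDG/80 mM Na+ external (pH 7.4). From −50 mV holding, −10 mV step, 20 ms recovery at −150 mV, then second −10 mV pulse where block is measured; inhibition after 7.5 min compound incubation.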
Target sequence in this assay (Q15858 other isoform, or with tags, fused parts or gaps): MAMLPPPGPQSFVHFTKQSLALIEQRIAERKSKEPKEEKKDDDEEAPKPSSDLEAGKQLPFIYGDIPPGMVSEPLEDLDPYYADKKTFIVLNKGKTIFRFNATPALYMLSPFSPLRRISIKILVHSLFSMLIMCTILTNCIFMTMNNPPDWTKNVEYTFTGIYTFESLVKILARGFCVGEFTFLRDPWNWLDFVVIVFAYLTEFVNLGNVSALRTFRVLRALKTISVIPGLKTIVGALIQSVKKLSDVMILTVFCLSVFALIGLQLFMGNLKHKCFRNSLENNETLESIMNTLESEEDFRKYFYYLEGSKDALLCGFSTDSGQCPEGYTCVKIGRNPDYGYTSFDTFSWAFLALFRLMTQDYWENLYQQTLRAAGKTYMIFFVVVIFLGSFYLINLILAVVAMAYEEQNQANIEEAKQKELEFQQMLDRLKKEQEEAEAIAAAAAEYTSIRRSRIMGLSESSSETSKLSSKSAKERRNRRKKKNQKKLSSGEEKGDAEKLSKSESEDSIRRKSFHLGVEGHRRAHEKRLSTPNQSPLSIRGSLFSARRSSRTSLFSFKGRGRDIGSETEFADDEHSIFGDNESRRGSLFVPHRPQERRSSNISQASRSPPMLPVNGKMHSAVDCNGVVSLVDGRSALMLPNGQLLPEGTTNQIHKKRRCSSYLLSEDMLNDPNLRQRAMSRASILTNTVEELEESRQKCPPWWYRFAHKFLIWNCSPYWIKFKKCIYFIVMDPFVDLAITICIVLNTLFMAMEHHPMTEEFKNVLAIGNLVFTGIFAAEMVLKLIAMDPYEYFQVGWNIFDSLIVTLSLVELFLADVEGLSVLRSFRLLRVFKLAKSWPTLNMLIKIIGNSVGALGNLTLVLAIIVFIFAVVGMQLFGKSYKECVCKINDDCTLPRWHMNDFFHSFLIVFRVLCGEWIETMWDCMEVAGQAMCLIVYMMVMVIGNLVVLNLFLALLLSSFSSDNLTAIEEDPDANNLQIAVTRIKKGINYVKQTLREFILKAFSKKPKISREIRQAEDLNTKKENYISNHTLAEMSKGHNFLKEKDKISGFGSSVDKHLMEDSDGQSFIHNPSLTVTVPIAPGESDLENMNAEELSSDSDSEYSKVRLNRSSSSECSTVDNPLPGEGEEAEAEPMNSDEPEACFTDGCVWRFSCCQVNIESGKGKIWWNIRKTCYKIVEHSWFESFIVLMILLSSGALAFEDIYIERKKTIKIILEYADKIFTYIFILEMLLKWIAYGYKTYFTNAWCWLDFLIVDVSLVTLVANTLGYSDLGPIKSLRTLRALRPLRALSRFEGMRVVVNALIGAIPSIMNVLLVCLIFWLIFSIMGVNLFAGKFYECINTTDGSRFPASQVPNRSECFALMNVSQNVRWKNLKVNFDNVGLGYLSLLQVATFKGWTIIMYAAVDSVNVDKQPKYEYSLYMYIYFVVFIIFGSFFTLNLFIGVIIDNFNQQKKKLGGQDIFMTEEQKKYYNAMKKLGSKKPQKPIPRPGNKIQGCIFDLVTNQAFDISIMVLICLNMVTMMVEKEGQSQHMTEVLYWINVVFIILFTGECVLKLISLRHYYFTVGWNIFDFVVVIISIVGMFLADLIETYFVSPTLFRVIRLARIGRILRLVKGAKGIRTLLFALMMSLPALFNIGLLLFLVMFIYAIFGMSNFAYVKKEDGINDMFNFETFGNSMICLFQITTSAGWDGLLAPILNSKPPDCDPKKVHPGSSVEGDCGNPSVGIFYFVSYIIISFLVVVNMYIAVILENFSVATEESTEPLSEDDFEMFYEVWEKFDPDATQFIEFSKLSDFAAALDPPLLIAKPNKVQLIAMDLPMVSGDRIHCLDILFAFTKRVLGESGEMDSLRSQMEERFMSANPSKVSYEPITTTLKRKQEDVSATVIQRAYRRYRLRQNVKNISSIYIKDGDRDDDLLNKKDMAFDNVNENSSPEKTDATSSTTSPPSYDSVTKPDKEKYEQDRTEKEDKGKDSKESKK

One may read the IC50 as the point on the concentration scale where inhibition reaches its midpoint.

Counter-ions that a name gives are not always drawn.

With `CN(C)[C@H]1C[C@@H](c2cccc(C(F)(F)F)c2)CC[C@@H]1Nc1cc(F)c(S(=O)(=O)Nc2nccs2)cc1Cl` [Example 129, 5-chloro-4-(((1S,2S,4S)-2-(dimethylamino)-4-(3-(trifluoromethyl)phenyl)cyclohexyl)amino)-2-fluoro-N-(thiazol-2-yl)benzenesulfonamide formate], the IC50 in assay [1] came to 0.255 nM; in assay [2], 0.372 nM.
With `Cc1csc(NS(=O)(=O)c2cc(Cl)c(N[C@H]3CC[C@H](C(F)(F)F)C[C@@H]3N(C)C)cc2F)n1` [Example 171, 5-chloro-4-(((1S,2S,4S)-2-(dimethylamino)-4-(trifluoromethyl)cyclohexyl)amino)-2-fluoro-N-(4-methylthiazol-2-yl)benzenesulfonamide formate], the half-maximal inhibitory concentration (IC50) in assay [1] was 255 nM; in assay [2], 12.2 nM.
The matching figures for `CN(C)[C@H]1CCCC[C@@H]1N1CCOc2cc(S(=O)(=O)Nc3nccs3)c(F)cc21` [Example 132, 4-((1 S,2S)-2-(dimethylamino)cyclohexyl)-6-fluoro-N-(thiazol-2-yl)-3,4-dihydro-2H-benzo[b][1,4]oxazine-7-sulfonamide]: 306 nM and 14 nM.
For the compound `CC(C)C(=O)N1CC(N(C)[C@H]2CCCC[C@@H]2Nc2cc(F)c(S(=O)(=O)Nc3nccs3)cc2Cl)C1` [Example 146, 5-Chloro-2-fluoro-4-(((1S,2S)-2-((1-isobutyrylazetidin-3-yl)(methyl)amino)cyclohexyl)amino)-N-(thiazol-2-yl)benzenesulfonamide], the concentration for half-maximal inhibition (IC50) in assay [1] came to 154 nM; in assay [2], 15.4 nM.
As for `CCN(C)[C@H]1CCCC[C@@H]1N1CCOc2cc(S(=O)(=O)Nc3nccs3)c(F)cc21` (racemic) [Example 189, 4-((trans)-2-(ethyl(methyl)amino)cyclohexyl)-6-fluoro-N-(thiazol-2-yl)-3,4-dihydro-2H-benzo[b][1,4]oxazine-7-sulfonamide], the values for the IC50 in assay [1] and in assay [2] were 304 nM and 23.4 nM, respectively.
As for `CN(C)[C@H]1C[C@@H](c2cccc(C(F)(F)F)c2)CC[C@@H]1Nc1cc(F)c(S(=O)(=O)Nc2ccncn2)cc1C1CC1` [Example 230, 5-Cyclopropyl-4-(((1S,2S,4S)-2-(dimethylamino)-4-(3-(trifluormethyl)phenyl)cyclohexyl)amino)-2-fluoro-N-(pyrimidin-4-yl)benzenesulfonamide formate], the IC50 in assay [1] worked out at 0.627 nM; in assay [2] it was 1.52 nM.
Regarding `CN(CCCF)[C@H]1CCCC[C@@H]1Nc1cc(F)c(S(=O)(=O)Nc2nccs2)cc1Cl` [Example 135, 5-chloro-2-fluoro-4-(((1S,2S)-2-((3-fluoropropyl)(methyl)amino)cyclohexyl)amino)-N-(thiazol-2-yl)benzenesulfonamide], the IC50 in assay [1] turned out to be 313 nM; in assay [2], 32.8 nM.
For the compound `CN(C)[C@H]1CCCC[C@@H]1Oc1cc(F)c(S(=O)(=O)Nc2cccc(F)n2)cc1C1CC1` [Example 114, 5-Cyclopropyl-4-(((1S,2S)-2-(dimethylamino)cyclohexyl)oxy)-2-fluoro-N-(6-fluoropyridin-2-yl)benzenesulfonamide formate], the IC50 in assay [1] stood at 264 nM; in assay [2], 33.1 nM.
With `CN(C[C@@H](O)C1CC1)[C@H]1CCCC[C@@H]1Nc1cc(F)c(S(=O)(=O)Nc2nccs2)cc1Cl` [Example 139, 5-Chloro-4-(((1S,2S)-2-(((S)-2-cyclopropyl-2-hydroxyethyl)(methyl)amino)cyclohexyl)amino)-2-fluoro-N-(thiazol-2-yl)benzenesulfonamide], the values for the IC50 in assay [1] and in assay [2] were 291 nM and 45.6 nM, respectively.
As to `CN(CC(O)C(F)F)[C@H]1CCCC[C@@H]1Nc1cc(F)c(S(=O)(=O)Nc2nccs2)cc1Cl` (single isomer, unassigned) [Example 126], the IC50 turned out to be 87.6 nM in assay [1] and 9.25 nM in assay [2].
On to `C[N+](C)([O-])[C@H]1C[C@@H](c2cccc(C(F)(F)F)c2)CC[C@@H]1Nc1cc(F)c(S(=O)(=O)Nc2ccncn2)cc1Cl` [Example 235, (1S,2S,5S)-2-((2-Chloro-5-fluoro-4-(N-(pyrimidin-4-yl)sulfamoyl)phenyl)amino)-N,N-dimethyl-5-(3-(trifluoromethyl)phenyl)cyclohexanamine oxide], for which the half-maximal inhibitory concentration (IC50) stood at 11.8 nM in assay [1] and 8.14 nM in assay [2].
Take `CN(C)[C@H]1CC=C(C(F)(F)F)C[C@@H]1Nc1cc(F)c(S(=O)(=O)Nc2nccs2)cc1Cl` [Example 130, 5-chloro-4-(((1S,6S)-6-(dimethylamino)-3-(trifluoromethyl)cyclohex-3-en-1-yl)amino)-2-fluoro-N-(thiazol-2-yl)benzenesulfonamide]: the IC50 turned out to be 75.9 nM in assay [1] and 9.92 nM in assay [2].
For `CN(C)[C@H]1C[C@@H](C(F)(F)F)CC[C@@H]1Nc1cc(F)c(S(=O)(=O)Nc2ccncn2)cc1C1CC1` [Example 178, 5-cyclopropyl-4-(((1S,2S,4S)-2-(dimethylamino)-4-(trifluoromethyl)cyclohexyl)amino)-2-fluoro-N-(pyrimidin-4-yl)benzenesulfonamide], the concentration for half-maximal inhibition (IC50) in assay [1] amounted to 205 nM; in assay [2], 19.1 nM.
As to `CN(C)[C@H]1C[C@@H](C(F)(F)F)CC[C@@H]1Nc1cc(F)c(S(=O)(=O)Nc2ccncn2)cc1Cl` [Example 112, 5-chloro-4-(((1S,2S,4S)-2-(dimethylamino)-4-(trifluoromethyl)cyclohexyl)amino)-2-fluoro-N-(pyrimidin-4-yl)benzenesulfonamide], the concentration for half-maximal inhibition (IC50) was found to be 229 nM in assay [1] and 15.1 nM in assay [2].
Consider `CN1CCN([C@H]2CCCC[C@@H]2Nc2cc(F)c(S(=O)(=O)Nc3nccs3)cc2Cl)CC1` [Example 163, 5-Chloro-2-fluoro-4-(((1S,2S)-2-(4-methylpiperazin-1-yl)cyclohexyl)amino)-N-(thiazol-2-yl)benzenesulfonamide], for which the figures for the IC50 in assay [1] and in assay [2] were 201 nM and 18.1 nM, respectively.
For `O=S(=O)(Nc1nccs1)c1cc(Cl)c(N[C@H]2CCCC[C@@H]2N2CCC[C@H](O)C2)cc1F` [Example 153, 5-chloro-2-fluoro-4-(((1S,2S)-2-((S)-3-hydroxypiperidin-1-yl)cyclohexyl)amino)-N-(thiazol-2-yl)benzenesulfonamide], the IC50 came to 17.1 nM in assay [1] and 4.07 nM in assay [2].
Consider `CCN(C)[C@H]1CCCC[C@@H]1Nc1cc(F)c(S(=O)(=O)Nc2nc(C)cs2)cc1Cl` [Example 102, 5-chloro-4-(((1S,2S)-2-(ethyl(methyl)amino)cyclohexyl)amino)-2-fluoro-N-(4-methylthiazol-2-yl)benzenesulfonamide formate], for which the half-maximal inhibitory concentration (IC50) in assay [1] is 424 nM; in assay [2] it was 66.5 nM.
`CN(C)[C@H]1C[C@H]2C[C@H]2C[C@@H]1Nc1cc(F)c(S(=O)(=O)Nc2nccs2)cc1Cl` [Example 214, 5-Chloro-4-(((1S,3S,4S,6R)-4-(dimethylamino)bicyclo[4.1.0]heptan-3-yl)amino)-2-fluoro-N-(thiazol-2-yl)benzenesulfonamide]: the 50% inhibitory concentration (IC50) was found to be 53.1 nM in assay [1] and 2.09 nM in assay [2].
As for `CN(C)[C@@H]1CC2C(C[C@H]1Nc1cc(F)c(S(=O)(=O)Nc3nccs3)cc1Cl)C2(F)F` (stereo in doubt) [Example 208, 5-Chloro-4-(((1R,3R,4R,6S)-4-(dimethylamino)-7,7-difluorobicyclo[4.1.0]heptan-3-yl)amino)-2-fluoro-N-(thiazol-2-yl)benzenesulfonamide], the 50% inhibitory concentration (IC50) in assay [1] came to 46.7 nM; in assay [2], 6.12 nM.
The matching figures for `O=S(=O)(Nc1ccncn1)c1cc(Cl)c(N[C@H]2CCCC[C@@H]2N2CC3C(C2)C3(F)F)cc1F` (stereo partly drawn) [Example 183, 5-chloro-4-(((1S,2S)-2-(6,6-difluoro-3-azabicyclo[3.1.0]hexan-3-yl)cyclohexyl)amino)-2-fluoro-N-(pyrimidin-4-yl)benzenesulfonamide]: 277 nM and 12 nM.
As for `CN(CC(O)CF)[C@H]1CCCC[C@@H]1Nc1cc(F)c(S(=O)(=O)Nc2nccs2)cc1Cl` (single isomer, unassigned) [Example 119], the IC50 in assay [1] turned out to be 184 nM; in assay [2], 10.7 nM.
Regarding `O=S(=O)(Nc1cccc(F)n1)c1cc(Cl)c(N[C@H]2CCCC[C@@H]2N2CCCCC2)cc1F` [Example 123, 5-chloro-2-fluoro-N-(6-fluoropyridin-2-yl)-4-(((1S,2S)-2-(piperidin-1-yl)cyclohexyl)amino)benzenesulfonamide], the IC50 in assay [1] was 17.5 nM; in assay [2] it was 4.54 nM.
The matching figures for `CN(C)[C@H]1CCCC[C@@H]1Nc1cc(F)c(S(=O)(=O)Nc2cccc(F)n2)cc1C1CC1` [Example 107, 5-cyclopropyl-4-(((1S,2S)-2-(dimethylamino)cyclohexyl)amino)-2-fluoro-N-(6-fluoropyridin-2-yl)benzenesulfonamide formate]: 137 nM and 18 nM.
For `CN(C[C@H](O)C1CC1)[C@H]1CCCC[C@@H]1Nc1cc(F)c(S(=O)(=O)Nc2nccs2)cc1Cl` [Example 143, 5-Chloro-4-(((1S,2S)-2-(((R)-2-cyclopropyl-2-hydroxyethyl)(methyl)amino)cyclohexyl)amino)-2-fluoro-N-(thiazol-2-yl)benzenesulfonamide], the 50% inhibitory concentration (IC50) was determined as 418 nM in assay [1] and 19.3 nM in assay [2].
Consider `CN(CC(O)CF)[C@H]1CCCC[C@@H]1Nc1cc(F)c(S(=O)(=O)Nc2nccs2)cc1Cl` (single isomer, unassigned) [Example 118], for which the IC50 in assay [1] turned out to be 242 nM; in assay [2], 8.51 nM.
Consider `CN(C)[C@H]1CC2C(C[C@@H]1Nc1cc(F)c(S(=O)(=O)Nc3nccs3)cc1Cl)C2(F)F` (stereo in doubt) [Example 209, 5-Chloro-4-(((1R,3S,4S,6S)-4-(dimethylamino)-7,7-difluorobicyclo[4.1.0]heptan-3-yl)amino)-2-fluoro-N-(thiazol-2-yl)benzenesulfonamide], for which the IC50 came out at 160 nM in assay [1] and 9.25 nM in assay [2].
